The structures appear in SMILES notation.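 Where inhibition never reached the appropriate level, the endpoint shown equals the highest concentration tested. Otherwise, values were interpolated linearly from a five-concentration, 48-hour dose response in 96-well plates. Abbreviation: GI50, concentration required for 50% inhibition of growth.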 Activity calls are given as the source filed them. No stated cut-off is given here; in the data, active = GI50 up to about 1.1 µM and inactive = higher. Bounds are passed on as bounds.

Some test systems named below: T47D; MDA-MB-435; PC-3; OVCAR-4; HT-29; SF-268; SK-MEL-28; NCI-H23; RXF 393; HCT-116; CAKI-1; NCI/ADR-RES; HL-60; OVCAR-8; NCI-H460; EKVX; COLO 205; SK-MEL-2; KM12; TK-10.
Common to all, as to assay: growth of human tumour cells (NCI), 48 h

Take `CCOC(=O)/C(C(N)=O)=C(/O)c1cnccn1`: the GI50 with T47D, in the assay on MDA-MB-435, with PC-3, with OVCAR-4, in the assay with HT-29 and in the assay with SF-268 was > 100 µM (inactive) throughout. The GI50 in the assay on SK-MEL-28, with NCI-H23, in the assay with RXF 393, with HCT-116, with CAKI-1 and in the assay with NCI/ADR-RES was > 100 µM (inactive) throughout. The GI50 in the assay on HL-60, in the assay on OVCAR-8, in the assay with NCI-H460, in the assay on EKVX, in the assay on COLO 205 and in the assay on SK-MEL-2 was > 100 µM (inactive) in each case. For the same molecule, the GI50 in the assay on KM12 is > 100 µM (inactive).

On to `O=C(N/N=C1\CCc2ccccc2C1)N/N=C1\CCc2ccccc2C1`, for which the GI50 with T47D, with MDA-MB-435, in the assay with PC-3, in the assay on OVCAR-4, in the assay on HT-29 and with SF-268 was > 10 µM (inactive) throughout. The GI50 with NCI-H23, in the assay on RXF 393, in the assay on HCT-116, in the assay on CAKI-1, with NCI/ADR-RES and in the assay with HL-60 was > 10 µM (inactive) in each case. In addition, the GI50 in the assay on OVCAR-8, in the assay with NCI-H460, with TK-10, in the assay with EKVX, in the assay with COLO 205 and with SK-MEL-2 was > 10 µM (inactive) each time. Besides, in the assay with KM12, the GI50 was > 10 µM (inactive).

As to `[O-][n+]1nc(N2CCOCC2)nc2ccccc21`, the GI50 in the assay on T47D, in the assay on MDA-MB-435, with PC-3, in the assay on HT-29, in the assay on SF-268 and with SK-MEL-28 was > 100 µM (inactive) throughout. Besides, the GI50 with NCI-H23 was > 100 µM (inactive); in the assay on RXF 393 it was 49.5 µM (inactive); in the assay with HCT-116, > 100 µM (inactive); in the assay with CAKI-1 it was > 100 µM (inactive); in the assay with NCI/ADR-RES, > 100 µM (inactive); in the assay on HL-60 it was > 100 µM (inactive). Besides, the GI50 with OVCAR-8 is > 100 µM (inactive); in the assay on TK-10, 77.1 µM (inactive); with EKVX, > 100 µM (inactive); with COLO 205, > 100 µM (inactive); in the assay with SK-MEL-2 it was > 100 µM (inactive); in the assay with KM12 it was > 100 µM (inactive).

Turning to `COC(=O)/C=C\C(C#N)(C#N)/N=C/c1ccc(OC)cc1`, the GI50 in the assay on T47D is 1.54 µM (inactive); in the assay on MDA-MB-435 it was 2.33 µM (inactive); in the assay with PC-3 it was 7.4 µM (inactive); in the assay on OVCAR-4 it was 1.92 µM (inactive); in the assay with HT-29, 5.31 µM (inactive); with SF-268, 4.94 µM (inactive). Besides, the GI50 in the assay on SK-MEL-28 was 2.7 µM (inactive); in the assay on NCI-H23 it was 8.95 µM (inactive); with RXF 393, 2.19 µM (inactive); in the assay on HCT-116 it was 1.84 µM (inactive); in the assay with CAKI-1, 2.08 µM (inactive); in the assay on NCI/ADR-RES, 2.73 µM (inactive). Further, the GI50 in the assay with HL-60 is 1.45 µM (inactive); with OVCAR-8, 2.89 µM (inactive); in the assay with NCI-H460 it was 19.5 µM (inactive); with TK-10, 2.63 µM (inactive); in the assay on EKVX, 16.6 µM (inactive); with COLO 205, 1.65 µM (inactive). The GI50 was 18.3 µM (inactive) with SK-MEL-2 and 16.7 µM (inactive) in the assay with KM12.

As to `CC1(C)CO[P@@](=S)(c2ccccn2)O[C@@H]1c1ccccc1`, the GI50 in the assay with T47D was > 100 µM (inactive); in the assay on MDA-MB-435, > 100 µM (inactive); in the assay on PC-3, > 100 µM (inactive); in the assay on OVCAR-4 it was 73.6 µM (inactive); in the assay with HT-29 it was > 100 µM (inactive); with SF-268, > 100 µM (inactive). Further, the GI50 in the assay on SK-MEL-28 was > 100 µM (inactive); with NCI-H23, 89.3 µM (inactive); in the assay on RXF 393 it was > 100 µM (inactive); with HCT-116, 93.3 µM (inactive); in the assay with CAKI-1, > 100 µM (inactive); in the assay on NCI/ADR-RES, 75 µM (inactive). In addition, the GI50 with HL-60 is > 100 µM (inactive); in the assay on OVCAR-8, > 100 µM (inactive); with NCI-H460, > 100 µM (inactive); in the assay on TK-10, > 100 µM (inactive); in the assay on EKVX, 96.8 µM (inactive); in the assay on COLO 205, > 100 µM (inactive). Moreover, the GI50 in the assay with KM12 was > 100 µM (inactive).

Take `COc1ccc(CCNC(=O)c2ccccc2C2c3ccc(OCc4ccccc4)cc3Oc3cc(OCc4ccccc4)ccc32)cc1OC`: the GI50 in the assay with T47D, in the assay on MDA-MB-435, in the assay with PC-3, with OVCAR-4, in the assay on HT-29 and in the assay with SF-268 was > 100 µM (inactive) in each case. Further, the GI50 in the assay on SK-MEL-28, in the assay on NCI-H23, in the assay on RXF 393, in the assay with HCT-116, in the assay with CAKI-1 and in the assay with NCI/ADR-RES was > 100 µM (inactive) each time. Also, the GI50 in the assay with HL-60 was 0.668 µM (active); in the assay with OVCAR-8, > 100 µM (inactive); in the assay with TK-10, > 100 µM (inactive); in the assay on EKVX, > 100 µM (inactive); in the assay with COLO 205, > 100 µM (inactive); with SK-MEL-2 it was > 100 µM (inactive). Also, in the assay with KM12, the GI50 is > 100 µM (inactive).

With `CCOC(=O)c1c(SC(=O)c2ccc(C(C)(C)C)cc2)n(-c2ccccc2)c(=S)n(-c2ccccc2)c1=O`, the GI50 in the assay on T47D, in the assay on MDA-MB-435, in the assay on PC-3, in the assay on OVCAR-4, in the assay on HT-29 and in the assay with SF-268 was > 100 µM (inactive) each time. Moreover, the GI50 in the assay on SK-MEL-28, with NCI-H23, in the assay on RXF 393, in the assay with HCT-116, with CAKI-1 and in the assay on NCI/ADR-RES was > 100 µM (inactive) each time. Further, the GI50 in the assay with HL-60, with OVCAR-8, with NCI-H460, in the assay with TK-10, in the assay with EKVX and in the assay with COLO 205 was > 100 µM (inactive) in each case. The GI50 in the assay on KM12 is > 100 µM (inactive).

Turning to `CCNc1ncnc2c1nnn2CC`, the GI50 in the assay with T47D, with MDA-MB-435, in the assay on PC-3, in the assay on OVCAR-4, with HT-29 and in the assay on SK-MEL-28 was > 100 µM (inactive) each time. The GI50 with NCI-H23, in the assay with RXF 393, in the assay on HCT-116, in the assay with CAKI-1, in the assay with NCI/ADR-RES and in the assay with HL-60 was > 100 µM (inactive) throughout. In addition, the GI50 is 97.5 µM (inactive) in the assay with OVCAR-8; > 100 µM (inactive) with TK-10; > 100 µM (inactive) in the assay on EKVX; > 100 µM (inactive) in the assay with COLO 205; > 100 µM (inactive) in the assay on SK-MEL-2; > 100 µM (inactive) in the assay on KM12.

Turning to `COc1cc2c(cc1OC)C(CCN)=NCC2`, the GI50 in the assay on T47D was 8.32 µM (inactive); in the assay on MDA-MB-435, 16.5 µM (inactive); with PC-3, 16 µM (inactive); in the assay with OVCAR-4, 21.2 µM (inactive); in the assay on HT-29, 20.2 µM (inactive); with SF-268 it was 19.5 µM (inactive). Also, the GI50 was 18.4 µM (inactive) in the assay with SK-MEL-28; 13.1 µM (inactive) in the assay on NCI-H23; 15.7 µM (inactive) in the assay with RXF 393; 18.4 µM (inactive) with HCT-116; 12.6 µM (inactive) in the assay with CAKI-1; 27.4 µM (inactive) in the assay on NCI/ADR-RES. In addition, the GI50 in the assay on HL-60 is 0.839 µM (active); with OVCAR-8 it was 18.2 µM (inactive); with NCI-H460, > 59.2 µM (inactive); in the assay on TK-10 it was 10.2 µM (inactive); in the assay on EKVX, 23.1 µM (inactive); in the assay on COLO 205, 14.3 µM (inactive). Moreover, the GI50 was 17.4 µM (inactive) in the assay with SK-MEL-2 and 19 µM (inactive) in the assay with KM12.

Turning to `N#C[BH2-][n+]1ccc(C(=O)NNCc2ccc(F)cc2)cc1`, the GI50 is > 100 µM (inactive) in the assay with T47D; > 100 µM (inactive) in the assay on MDA-MB-435; > 100 µM (inactive) with PC-3; 64.1 µM (inactive) with OVCAR-4; > 100 µM (inactive) in the assay on SF-268; > 100 µM (inactive) in the assay on SK-MEL-28. For the same molecule, the GI50 in the assay on RXF 393, with HCT-116, in the assay with CAKI-1, in the assay with NCI/ADR-RES, with HL-60 and in the assay on OVCAR-8 was > 100 µM (inactive) in each case. The GI50 in the assay with NCI-H460, with TK-10, in the assay with EKVX, in the assay on COLO 205, with SK-MEL-2 and with KM12 was > 100 µM (inactive) throughout.

The values above are taken from ChEMBL document CHEMBL1201862, “PubChem BioAssay data set” (2004).
